Converted amounts (≈) assume the structure as drawn. Where two headings read alike, the source gives them in different places.
Assays:
[1] = tested on: methicillin-resistant Staphylococcus aureus subsp. aureus (MRSA) CCM 4750 (ATCC 43300); assay: microbe, parasite or virus in culture; type: cell-based; details: read-out: MIC Methicillin-resistant Staphylococcus aureus subsp. aureus
[2] = tested on: Mycolicibacterium aurum DSM 43,999 (ATCC 23366); assay: Antimycobacterial microdilution (resazurin) vs M. aurum; type: cell-based; details: Middlebrook 7H9, resazurin, read-out: MIC M. aurum
[3] = tested on: Escherichia coli CCM 3954 (ATCC 25922); assay: Antibacterial microdilution broth (EUCAST); type: cell-based; details: Escherichia coli, read-out: MIC Escherichia coli
[4] = tested on: Candida albicans CCM 8320 (ATCC 24433); assay: Antifungal microdilution broth (EUCAST); type: cell-based; details: Candida albicans, read-out: MIC Candida albicans
[5] = tested on: Staphylococcus epidermidis CCM 4418 (ATCC 12228); assay: Antibacterial microdilution broth (EUCAST); type: cell-based; details: read-out: MIC Staphylococcus epidermidis
[6] = tested on: Mycobacterium kansasii DSM 44,162 (ATCC 12478); assay: Antimycobacterial microdilution (resazurin) vs M. kansasii; type: cell-based; details: Middlebrook 7H9, resazurin, read-out: MIC M. kansasii
HepG2 cell line = assay: Cytotoxicity screening, CellTiter 96 assay; details: for IC50: Homo sapiens, HepG2, 24 h, read-out: IC50 HepG2
[7] = tested on: Aspergillus flavus CCM 8363; assay: Antifungal microdilution broth (EUCAST); type: cell-based; details: Aspergillus flavus, CCM8363, read-out: MIC Aspergillus flavus
[8] = tested on: Acinetobacter baumannii DSM 30007 (ATCC 19606); assay: Antibacterial microdilution broth (EUCAST); type: cell-based; details: read-out: MIC Acinetobacter baumannii
[9] = tested on: Klebsiella pneumoniae CCM 4415 (ATCC 10031); assay: Antibacterial microdilution broth (EUCAST); type: cell-based; details: Klebsiella pneumoniae, read-out: MIC Klebsiella pneumoniae
[10] = tested on: Mycobacterium avium DSM 44,156 (ATCC 25291); assay: Antimycobacterial microdilution (resazurin) vs M. avium; type: cell-based; details: Mycobacterium avium, Middlebrook 7H9, resazurin; read-out: MIC M. avium
[11] = tested on: Candida tropicalis CCM 8264 (ATCC 750); assay: Antifungal microdilution broth (EUCAST); type: cell-based; details: read-out: MIC Candida tropicalis
[12] = tested on: Candida krusei CCM 8271 (ATCC 6258); assay: Antifungal microdilution broth (EUCAST); type: cell-based; details: Pichia kudriavzevii, read-out: MIC Candida krusei
[13] = tested on: Pseudomonas aeruginosa CCM 3955 (ATCC 27853); assay: Antibacterial microdilution broth (EUCAST); type: cell-based; details: read-out: MIC Pseudomonas aeruginosa
[14] = tested on: Trichophyton interdigitale CCM 8377 (ATCC 9533); assay: Antifungal microdilution broth (EUCAST); type: cell-based; details: Trichophyton interdigitale, read-out: MIC Trichophyton interdigitale
[15] = tested on: Mtb IZAK (MDR clinical isolate); assay: microbe, parasite or virus in culture; type: cell-based; details: Mycobacterium tuberculosis, read-out: MIC Mtb IZAK
[16] = tested on: Mycolicibacterium smegmatis DSM 43,465 (ATCC 607); assay: Antimycobacterial microdilution (resazurin) vs M. smegmatis; type: cell-based
[17] = tested on: Aspergillus fumigatus ATCC 204305; assay: Antifungal microdilution broth (EUCAST); type: cell-based; details: Aspergillus fumigatus, ATCC204305, read-out: MIC Aspergillus fumigatus
[18] = tested on: Candida parapsilosis CCM 8260 (ATCC 22019); assay: Antifungal microdilution broth (EUCAST); type: cell-based; details: Lodderomyces parapsilosis, read-out: MIC Candida parapsilosis
[19] = tested on: Staphylococcus aureus subsp. aureus CCM 4223 (ATCC 29213); assay: Antibacterial microdilution broth (EUCAST); type: cell-based; details: read-out: MIC Staphylococcus aureus subsp. aureus
[20] = tested on: Lichtheimia corymbifera CCM 8077; assay: Antifungal microdilution broth (EUCAST); type: cell-based; details: Lichtheimia corymbifera, CCM8077, read-out: MIC Lichtheimia corymbifera
[21] = tested on: Mtb MATI (MDR clinical isolate); assay: microbe, parasite or virus in culture; type: cell-based; details: Mycobacterium tuberculosis, read-out: MIC Mtb MATI
[22] = tested on: Mycobacterium tuberculosis H37Ra ITM-M006710 (ATCC 9431); assay: Antimycobacterial microdilution (resazurin) vs Mtb H37Ra; type: cell-based; details: Middlebrook 7H9, resazurin, recalculated from µg/mL, read-out: MIC Mtb H37Ra
[23] = tested on: Enterococcus faecalis CCM 4224 (ATCC 29212); assay: Antibacterial microdilution broth (EUCAST); type: cell-based; details: read-out: MIC Enterococcus faecalis
[24] = tested on: Mycobacterium tuberculosis H37Rv CNCTC My 331/88 (ATCC 27294); assay: Microplate Alamar Blue assay vs Mtb H37Rv; type: cell-based; details: Mycobacterium tuberculosis, pH 6.6, MABA, Middlebrook 7H9 pH 6.6, recalculated from µg/mL; read-out: MIC Mtb H37Rv
[25] = Middlebrook 7H9, resazurin, read-out: MIC M. smeg.

For `O=C(Nc1ccc2c(c1)B(O)OC2)c1cncc(Cl)n1` [Compound 4, 6-chloro-N-(1-hydroxy-1,3-dihydrobenzo[c][1,2]oxaborol-6-yl)pyrazine-2-carboxamide], the MIC ([1]; 24 h) was 250 µM (≈ 72.4 µg/mL), the MIC ([1]; 48 h) was 250 µM (≈ 72.4 µg/mL) and the MIC [2] was 13.5 µM (≈ 3.91 µg/mL). For the same compound, the MIC ([3]; 24h incubation) was > 500 µM, the MIC ([3]; 48h incubation) was > 500 µM and the MIC ([4]; 24h incubation) was > 500 µM. For the same compound, the MIC ([4]; 48h incubation) was > 500 µM, the MIC ([5]; 24h incubation) was 500 µM (≈ 145 µg/mL) and the MIC ([5]; 48h incubation) was 500 µM (≈ 145 µg/mL). The MIC [6] was 27 µM (≈ 7.81 µg/mL), the IC50 (HepG2 cell line) was > 1000 µM and the MIC ([7]; 24h incubation) was > 500 µM. The MIC ([7]; 48h incubation) was > 500 µM, the MIC ([8]; 24h incubation) was > 500 µM and the MIC ([8]; 48h incubation) was > 500 µM. For the same compound, the MIC ([9]; 24h incubation) was > 500 µM, the MIC ([9]; 48h incubation) was > 500 µM and the MIC [10] was 27 µM (≈ 7.81 µg/mL). For the same compound, the MIC ([11]; 24h incubation) was > 500 µM, the MIC ([11]; 48h incubation) was > 500 µM and the MIC ([12]; 24h incubation) was > 500 µM. The MIC ([12]; 48h incubation) was > 500 µM, the melting point was 250.9 to 252.4 °C and the MIC ([13]; 24h incubation) was > 500 µM. The MIC ([13]; 48h incubation) was > 500 µM, the MIC ([14]; 72h incubation) was > 500 µM and the MIC ([14]; 120h incubation) was > 500 µM. For the same compound, the MIC [15] was 86.4 µM (≈ 25 µg/mL), the MIC [16, 25] was 27 µM (≈ 7.81 µg/mL) and the MIC ([17]; 24h incubation) was > 500 µM. For the same compound, the MIC ([17]; 48h incubation) was > 500 µM, the MIC ([18]; 24h incubation) was > 500 µM and the MIC ([18]; 48h incubation) was > 500 µM. For the same compound, the MIC ([19]; 24h incubation) was 125 µM (≈ 36.2 µg/mL), the MIC ([19]; 48h incubation) was 125 µM (≈ 36.2 µg/mL) and the MIC ([20]; 24h incubation) was > 500 µM. The MIC ([20]; 48h incubation) was > 500 µM, the MIC [21] was 86.4 µM (≈ 25 µg/mL) and the MIC [22] was 108 µM (≈ 31.3 µg/mL). For the same compound, the MIC ([23]; 24h incubation) was > 500 µM, the MIC ([23]; 48h incubation) was > 500 µM and the MIC [24] was 86.4 µM (≈ 25 µg/mL).
With `O=C(Nc1ccc2c(c1)B(O)OC2)c1ccccn1` [Compound 10, N-(1-hydroxy-1,3-dihydrobenzo[c][1,2]oxaborol-6-yl)picolinamide] the MIC ([1]; 24 h) was 250 µM (≈ 63.5 µg/mL), the MIC ([1]; 48 h) was 250 µM (≈ 63.5 µg/mL) and the MIC ([3]; 24h incubation) was > 500 µM. For the same compound, the MIC ([3]; 48h incubation) was > 500 µM, the MIC ([4]; 24h incubation) was > 500 µM and the MIC ([4]; 48h incubation) was > 500 µM. The MIC ([5]; 24h incubation) was 500 µM (≈ 127 µg/mL), the MIC ([5]; 48h incubation) was 500 µM (≈ 127 µg/mL) and the IC50 (HepG2 cell line) was > 1000 µM. The MIC ([7]; 24h incubation) was > 500 µM, the MIC ([7]; 48h incubation) was > 500 µM and the MIC ([8]; 24h incubation) was > 500 µM. For the same compound, the MIC ([8]; 48h incubation) was > 500 µM, the MIC ([9]; 24h incubation) was > 500 µM and the MIC ([9]; 48h incubation) was > 500 µM. For the same compound, the MIC [10] was < 62 µM, the MIC ([11]; 24h incubation) was > 500 µM and the MIC ([11]; 48h incubation) was > 500 µM. For the same compound, the MIC ([12]; 24h incubation) was > 500 µM, the MIC ([12]; 48h incubation) was > 500 µM and the melting point was 183.7 to 186.1 °C. For the same compound, the MIC ([13]; 24h incubation) was > 500 µM, the MIC ([13]; 48h incubation) was > 500 µM and the MIC ([14]; 72h incubation) was > 500 µM. The MIC ([14]; 120h incubation) was > 500 µM, the MIC [15] was 98.4 µM (≈ 25 µg/mL) and the MIC [16, 25] was < 62 µM. For the same compound, the MIC ([16]; read-out: MIC M. smeg., Middlebrook 7H9, resazurin) was 61.5 µM (≈ 15.6 µg/mL), the MIC ([17]; 24h incubation) was > 500 µM and the MIC ([17]; 48h incubation) was > 500 µM. For the same compound, the MIC ([18]; 24h incubation) was > 500 µM, the MIC ([18]; 48h incubation) was > 500 µM and the MIC ([19]; 24h incubation) was 250 µM (≈ 63.5 µg/mL). For the same compound, the MIC ([19]; 48h incubation) was 250 µM (≈ 63.5 µg/mL), the MIC ([20]; 24h incubation) was > 500 µM and the MIC ([20]; 48h incubation) was > 500 µM. The MIC [21] was 98.4 µM (≈ 25 µg/mL), the MIC [22] was < 62 µM and the MIC ([23]; 24h incubation) was > 500 µM. The MIC ([23]; 48h incubation) was > 500 µM and the MIC [24] was < 62 µM.
In the case of `O=C(Nc1ccc2c(c1)B(O)OC2)c1cnc2ccccc2n1` [Compound 17, N-(1-hydroxy-1,3-dihydrobenzo[c][1,2]oxaborol-6-yl)quinoxaline-2-carboxamide], the MIC ([1]; 24 h) is reported as > 500 µM, the MIC ([1]; 48 h) is reported as > 500 µM and the MIC [2] is reported as 12.8 µM (≈ 3.91 µg/mL). The MIC ([3]; 24h incubation) was > 500 µM, the MIC ([3]; 48h incubation) was > 500 µM and the MIC ([4]; 24h incubation) was > 500 µM. For the same compound, the MIC ([4]; 48h incubation) was > 500 µM, the MIC ([5]; 24h incubation) was > 500 µM and the MIC ([5]; 48h incubation) was > 500 µM. For the same compound, the MIC [6] was 25.6 µM (≈ 7.81 µg/mL), the IC50 (HepG2 cell line) was > 250 µM and the “toxicity to HepG2 up to highest tested concentration” value (HepG2 cell line; tested up to 500 µM (2, 3), 250 µM (12, 17), 100 µM (6, 7, 11) because of solubility) was “non-toxic”. For the same compound, the MIC ([7]; 24h incubation) was > 500 µM, the MIC ([7]; 48h incubation) was > 500 µM and the MIC ([8]; 24h incubation) was > 500 µM. For the same compound, the MIC ([8]; 48h incubation) was > 500 µM, the MIC ([9]; 24h incubation) was > 500 µM and the MIC ([9]; 48h incubation) was > 500 µM. The MIC [10] was 102 µM (≈ 31.3 µg/mL), the MIC ([11]; 24h incubation) was > 500 µM and the MIC ([11]; 48h incubation) was > 500 µM. For the same compound, the MIC ([12]; 24h incubation) was > 500 µM, the MIC ([12]; 48h incubation) was > 500 µM and the MIC ([13]; 24h incubation) was > 500 µM. For the same compound, the MIC ([13]; 48h incubation) was > 500 µM, the MIC ([14]; 72h incubation) was > 500 µM and the MIC ([14]; 120h incubation) was > 500 µM. The MIC [15] was 41 µM (≈ 12.5 µg/mL), the MIC [16, 25] was 12.8 µM (≈ 3.91 µg/mL) and the MIC ([17]; 24h incubation) was > 500 µM. The MIC ([17]; 48h incubation) was > 500 µM, the MIC ([18]; 24h incubation) was > 500 µM and the MIC ([18]; 48h incubation) was > 500 µM. The MIC ([19]; 24h incubation) was > 500 µM, the MIC ([19]; 48h incubation) was > 500 µM and the MIC ([20]; 24h incubation) was > 500 µM. The MIC ([20]; 48h incubation) was > 500 µM, the MIC [21] was 41 µM (≈ 12.5 µg/mL) and the MIC [22] was > 819 µM. For the same compound, the MIC ([23]; 24h incubation) was > 500 µM, the MIC ([23]; 48h incubation) was > 500 µM and the MIC [24] was 20.5 µM (≈ 6.25 µg/mL).
